Laboratory results taken from the NIST ThermoML archive (doi:10.1021/je030216r).
Numbers after ± are expanded uncertainties.

Tests used:
[1] = Boiling temperature at pressure P; conditions: 100 kPa; Liquid; Ebulliometric method (Recirculating still)
[2] = refractive index (Na D-line) (dimensionless); conditions: 293.15 K; 101.33 kPa; Liquid; Standard Abbe refractometry
[3] = 293.15 K; 101.33 kPa; Liquid

Boiling temperature at pressure P [1] | refractive index [2] | mass density [3] | SMILES
197.48 ± 0.2 °C | 1.4328 ± 0.0008 | 1113.6 ± 5.1 kg/m3 | OCCO [1,2-ethanediol]
128.40 ± 0.2 °C | 1.4095 ± 0.0007 | 817.8 ± 5 kg/m3 | CCC(C)CO (centres undefined) [2-methyl-1-butanol]
131.30 ± 0.2 °C | 1.4054 ± 0.0007 | 808.1 ± 5 kg/m3 | CC(C)CCO [3-methylbutan-1-ol]
